Converted amounts (≈) assume the structure as drawn.
How the values were obtained:
[1] = tested on: C. albicans Gu5 (ATCC MYA-574); assay: Minimum inhibitory concentration (MIC); assay type: cell-based; settings: for 5-FC the concentration inhibiting ≧50% by absorbance
Description: (§1) To prepare the inoculation, the fungal strains were cultured for approximately 24 hours on Sabouraud dextrose agar (SDA) plates were diluted to a 0.5 McFarland standard (1-5×10^6 CFU/mL) in sterile normal saline and diluted 100-fold in yeast peptone dextrose (YPD). Inoculum was added to serial dilutions of AmB in 96-well plates, following the microplate dilution method. Plates were sealed with Breathe Easier membranes (Sigma Aldrich, St. Louis, Mo.). ATCC 9763 or K1 was incubated at 30° C. or 37° C., respectively, for 18-20 hours. […] SDA was prepared with 1% peptone, 4% glucose, and 1.5% agar in deionized water. YPD media was prepared with 1% yeast extract, 2% peptone, and 2% glucose in deionized water. Autoclaving was used to sterilize media.
(§2) For 5-FC, the concentration necessary to inhibit ≧50% as determined by absorbance is reported.

[2] = tested on: C. albicans SC5314 (ATCC MYA-2876); assay: Minimum inhibitory concentration (MIC); assay type: cell-based; settings: for 5-FC the concentration inhibiting ≧50% by absorbance
Description: as §1, §2

C. albicans strain K1 = assay: Minimum inhibitory concentration (MIC); assay type: cell-based; settings: K1 (Example 6); for 5-FC the concentration inhibiting ≧50% by absorbance
Description: as §1, §2

K1 = assay: Neutropenic mouse model of disseminated candidiasis; assay type: in vivo, ICR/Swiss mice; settings: 48 hours; 72 mg/kg 5-FC
Description: The activity of each drug, alone and in combination, was evaluated in a neutropenic mouse model of disseminated candidiasis as described previously by D. Andes, et al., “Pharmacodynamics of amphotericin B in a neutropenic-mouse disseminated-candidiasis model,” Antimicrobial Agents and Chemotherapy, 45(3), 922-6 (2001).
For each treatment group, three six-week-old ICR/Swiss specific-pathogen-free female mice (Harlan Sprague Dawley, Madison, Wis.) were rendered neutropenic by multiple doses of cyclophosphamide. Animals were classified as neutropenic when polymorphonuclear leukocyte counts dropped below 100/mm^3. Infection was established by injecting 100 μL inoculum into the lateral tail vein. The inoculum was prepared by subculturing K1 on SDA plates for 24 hours at 35° C. Six colonies were dispersed into 5 mL of sterile pyrogen-free normal saline warmed to 35° C. and injected two hours prior to drug treatment. Antifungals (200 μL) were dosed intraperitoneally on the day of infection and 24 hours after the initial dose. […] The animals were euthanized by CO2 asphyxiation 48 hours after the initial drug treatment. […] After 24 hours of incubation at 35° C., colonies were counted. Results were expressed as the mean and standard deviation of the difference in viable fungal counts between the control group at zero hour (two hours post-infection) and each group at the 48 hour timepoint. […]

bovine red blood cells = settings: 5-FC alone, 25-100 μg/ml

**Q.** `Nc1nc(=O)[nH]cc1F` [5-FC, 5-fluorocytosine] was tested. Which MIC [1] did it give?
**A.** 81 µg/mL (≈ 627 µM)

**Q.** What about the MIC [2] of the same compound?
**A.** 20 µg/mL (≈ 155 µM)

**Q.** And the MIC (C. albicans strain K1)?
**A.** 64 µg/mL (≈ 496 µM)

**Q.** And the “fungal burden of the control group relative to treated group” value (K1)?
**A.** 1.2 times

**Q.** What about the hemolytic activity (bovine red blood cells) of the same compound?
**A.** < 0.4%

From patent US20170290852A1, “MICELLE FORMULATIONS OF AMPHOTERICIN B” (Wisconsin Alumni Research Foundation, priority 2016, published 2017)
